The values below come from patent US20260116847A1 (priority 2023, published 2026).

For data set [1], the system named is tumor-specific antigens (CEA, CA 19/9, CA 125, prostate-specific antigen). Particulars: meta-analysis of phase I/II trials, over 400 patients, solid tumors; cited from earlier work.
The subject of data set [2] is kainic acid-induced status epilepticus model. Particulars: mouse study; cited from earlier work.
A short description of data set [3]: Solubility tests in water. The format is physicochemical. The following applies: comparison of forms I, II and III. As for the experimental part:
Solubility tests were performed by dissolving samples of pure forms of marimastat in water.

The nature of data set [4]: Stability of the forms I, II and III stirred together in various solvents, XRPD. Particulars: for thermodynamic stability of the form: maceration of the mixture of all three forms in different solvents, room temperature, 4 days; for XRPD form after stirring: 25 °C, 4 d. The format is physicochemical. The source says:
The remaining 7 solvents gave the initial mixture of three polymorphic forms. Thus, when using the mixture of all three forms for maceration in different solvents, complete disappearance of the form II and the form III, complete disappearance of the form II, or all three forms remaining in the mixture were observed. The complete disappearance of the form I was not observed in any of the experiments.

A short description of data set [5]: Stability studies of solid forms under storage conditions, XRPD. Particulars: 25° C./100% RH and 40° C./75% RH 7 days; 30°/100 mbar 1 hour; room temperature 1 year; above 150° C. The format is physicochemical. As for the experimental part:
Stability studies of the amorphous form, pure crystalline polymorphic forms I, II and III and the mixture of the crystalline polymorphic forms I and III were carried out under the following conditions: 25° C./100% RH (relative humidity) and 40° C./75% RH (relative humidity) for 7 days, at 30°/100 mbar for 1 hour, at room temperature for 1 year, and also at elevated temperature (above 150° C.).

Data set [6] in a line: Thermogravimetric analysis (TGA). The format is physicochemical. Particulars: 10° C./min; for weight loss (TG): 25° C.-195° C.; for degradation temperature (TG): range 25° C.-320° C. As for the experimental part: Thermogravimetric analysis for the crystalline polymorphic form I, II and III was performed using a Mettler Toledo TGA/DSC1 apparatus. The sample was weighed in an aluminum pan closed with an aluminum cover with holes.
[…] […] The degradation occurred above 200° C. The TG analysis proves that the crystalline polymorphic form I of marimastat exists in the anhydrous form.
[…] […] The degradation occurred above 200° C. The TG analysis proves that the crystalline polymorphic form II of marimastat exists in the anhydrous form.
This sample was analyzed by TGA-EGA. The analysis was performed at a temperature of 25° C.-320° C. at a rate of 10° C./min. […] The degradation occurred above 200° C. The TG analysis proves that the crystalline polymorphic form III of marimastat exists in the anhydrous form.

Data set [7] can be described thus: Stability of the form II in various solvents at room temperature, XRPD. The format is physicochemical. The following applies: for XRPD form after stirring: 25 °C, 4 d. As for the experimental part: The stability of the form II in various solvents at room temperature was tested. Experiments were performed by suspending the form II in 1 ml of solvent and the formed suspension was stirred at room temperature at 25° C. for 4 days. Then, the precipitate was filtered off and the samples were dried at a temperature of 30° C./100 mbar for one hour, followed by XRPD analysis.

Data set [8] in a line: Microscopic examinations / bulk density. Type of data set: physicochemical. Particulars: comparison of the forms. As for the experimental part: Microscopic examinations were performed using an optical microscope or electron microscope.

Consider `CNC(=O)[C@@H](NC(=O)[C@H](CC(C)C)[C@H](O)C(=O)NO)C(C)(C)C` [Marimastat, (2R,3S)—N-1-((S)-3,3-dimethyl-1-methylamino-1-oxobutan-2-yl)-N-4,3-dihydroxy-2-isobutylsuccinamide], for which the “growth indicators of tumor-specific antigens” value in data set [1] is “significantly reduced all four growth indicators of tumor-specific antigens in a dose-dependent manner”. For the same compound, in data set [2], the “duration and number of seizures” value is “reduced the duration and number of seizures”.

In the case of `CNC(=O)[C@@H](NC(=O)[C@H](CC(C)C)[C@H](O)C(=O)NO)C(C)(C)C` [form III], in data set [3], the “rate of dissolution in water” value was “fastest soluble in water”. Moreover, the “thermodynamic stability of the form” value in data set [4] is on record as “kinetic forms”. Moreover, the “stability by XRPD (changes in diffraction lines)” value in data set [5] is recorded as “stable”. In data set [6], the “weight loss (TG)” value is reported as 0.4% and the “degradation temperature (TG)” value is “above 200 °C”.

With `CNC(=O)[C@@H](NC(=O)[C@H](CC(C)C)[C@H](O)C(=O)NO)C(C)(C)C` [form II], the “XRPD form after stirring” value was “Form II” in data set [7] (2-propanol, 30 mg/mL); “Form I” in data set [7] (acetonitrile, 10 mg/mL); “Form Il” in data set [7] (butyl acetate, 10 mg/mL); “Form II” in data set [7] (ethanol, 10 mg/mL); “Form I” in data set [7] (methanol, 110 mg/mL); “Form II” in data set [7] (methylcyclohexane, 10 mg/mL). Moreover, the “XRPD form after stirring” value in data set [7] (methylene chloride, 20 mg/mL) is “Form II”; in data set [7] (p-xylene, 20 mg/mL) it was “Form II”; in data set [7] (water, 30 mg/mL), “Form II”. In addition, the bulk density result in data set [8] was “highest and comparable bulk density”. Also, the “thermodynamic stability of the form” value in data set [4] is given as “kinetic forms”. Besides, the “stability by XRPD (changes in diffraction lines)” value in data set [5] is “stable”. For the same compound, the “weight loss (TG)” value in data set [6] was 0.2%. Further, the “degradation temperature (TG)” value in data set [6] was “above 200 °C”.

In the case of `CNC(=O)[C@@H](NC(=O)[C@H](CC(C)C)[C@H](O)C(=O)NO)C(C)(C)C` [form I], the “thermodynamic stability of the form” value in data set [7] (form II stirred in solvents, 25° C., 4 days) is “greatest thermodynamic stability”; in data set [4] it was “most thermodynamically stable”. Moreover, the bulk density entry in data set [8] is “highest and comparable bulk density”. For the same compound, in data set [3], the “rate of dissolution in water” value is on record as “dissolves the slowest”. Further, the “stability by XRPD (changes in diffraction lines)” value in data set [5] is “stable”. For the same compound, the “weight loss (TG)” value in data set [6] is on record as 0.3%. Further, the “degradation temperature (TG)” value in data set [6] was “above 200 °C”.

In the case of `CNC(=O)[C@@H](NC(=O)[C@H](CC(C)C)[C@H](O)C(=O)NO)C(C)(C)C` [mixture of the forms I and III], the “stability by XRPD (changes in diffraction lines)” value in data set [5] is reported as “stable”.

As to `CNC(=O)[C@@H](NC(=O)[C@H](CC(C)C)[C@H](O)C(=O)NO)C(C)(C)C` [mixture of three polymorphic forms], the “XRPD form after stirring” value is reported as “Form I + Form III” in data set [4] (2-propanol, 30 mg/mL); “Form I” in data set [4] (acetone, 10 mg/mL); “Form I” in data set [4] (acetonitrile, 10 mg/mL); “Form I + Form II + Form III” in data set [4] (butyl acetate, 10 mg/mL); “Form I” in data set [4] (dimethoxyethane, 10 mg/mL); “Form I” in data set [4] (ethanol, 10 mg/mL). For the same compound, the “XRPD form after stirring” value is “Form I + Form II + Form III” in data set [4] (heptane, 10 mg/mL); “Form I” in data set [4] (methanol, 110 mg/mL); “Form I + Form II + Form III” in data set [4] (methyl isobutyl ketone, 10 mg/mL); “Form I + Form III” in data set [4] (methyl tert-butyl ether, 10 mg/mL); “Form I + Form II + Form III” in data set [4] (methylcyclohexane, 10 mg/mL); “Form I + Form II + Form III” in data set [4] (methylene chloride, 10 mg/mL). For the same compound, the “XRPD form after stirring” value is “Form I + Form II + Form III” in data set [4] (p-xylene, 10 mg/mL); “Form I” in data set [4] (tetrahydrofuran, 10 mg/mL); “Form I + Form II + Form III” in data set [4] (toluene, 10 mg/mL); “Form I + Form III” in data set [4] (water, 30 mg/mL).
